Assay results published in US10544154B2, “Opioid receptor antagonist prodrugs” (Nirsum Laboratories, Inc., priority 2017, dated 2020).

Columns and labels:
[1] = Polymorph screening of solid state drug substances; assay type: physicochemical; conditions: for Dry method and appearance: after stirring at 50 °C for 72 hours; for XRPD results (Dried): dried solid
[2] = Plasma stability, rat plasma (HPLC-MS); assay type: in vitro ADME; conditions: 10 μM, 37° C.
Procedure: Plasma stability determination of the test compounds in rat, dog, cynomolgus monkey and human plasma is performed using HPLC-MS. For rat, incubations are carried out in 96-well polypropylene plates in 5 aliquots of 70 μL each (one for each time point). […] Five time points are analyzed (0, 15, 120, 480 and 1440 min). For dog, monkey and human, test compounds (2 μM, final solvent concentration 1%) were also incubated at 37° C. and analyzed at five time points (0, 10, 30, 60 and 120 min). All incubations are performed in duplicates. The samples are analyzed by HPLC-MS. The percentage of parent compound remaining after incubation in plasma is determined.

[3] = Clinical observations for dogs in pharmacokinetic studies; assay type: in vivo, Beagle dogs; conditions: dog D1503, 96 mg/kg, Day 1
Procedure: Weight monitoring was done every week.
The dose formulation (concentration—400 mg base equivalents/ml in sesame oil+1% benzyl alcohol, unless otherwise specified) was administered via deep intramuscularly (unless otherwise specified). The injection vehicle was also dosed via deep intramuscular route (unless otherwise specified) on contralateral site of each animal at study initiation. The animals were sedated with Propofol at 6 mg/kg via IV administration. Following sedation hair was carefully removed from around the injection site and the area gently cleaned. Care will be taken to avoid irritating skin during shaving and cleaning the injection site. Then dogs will be dosed with deep IM administration. At least 2.5 cm depth from the surface into the central aspect of the quadriceps or biceps femoris muscle, by angling the needle toward the femur. If the needle hits the femur, simply draws back slightly and then inject. The dose volume will be determined by the animals' body weight collected on the morning of dosing day. For repeated administration, the injection sites may be rotated to minimize tissue injury.

In the case of C=C1CC[C@@]2(O)C3Cc4ccc(OC(=O)CCCCCCCCCCCCCCCCCCC)c5c4[C@@]2(CCN3CC2CC2)[C@H]1O5 [Compound 16, (4aS,7aS,12bS)-3-(cyclopropylmethyl)-4a-hydroxy-7-methylene-2,3,4,4a,5,6,7,7a-octahydro-1H-4,12-methanobenzofuro[3,2-e]isoquinolin-9-yl icosanoate], the “Dry method and appearance” value ([1]; Acetone) is reported as “Evaporation/white powder”, the “XRPD results (Dried)” value ([1]; Acetone) is reported as “Pattern A” and the “Dry method and appearance” value ([1]; EtOAc) is reported as “Evaporation/white powder”. The “XRPD results (Dried)” value ([1]; EtOAc) was “Pattern A”, the “Dry method and appearance” value ([1]; Heptane) was “Centrifugation/white powder” and the “XRPD results (Dried)” value ([1]; Heptane) was “Pattern A”. The “Dry method and appearance” value ([1]; Isopropanol) was “Centrifugation/white powder”, the “XRPD results (Dried)” value ([1]; Isopropanol) was “Pattern A” and the “Dry method and appearance” value ([1]; MTBE) was “Evaporation/white powder”. For the same molecule, the “XRPD results (Dried)” value ([1]; MTBE) was “Pattern A”.

For C=C1CC[C@@]2(O)C3Cc4ccc(OC(=O)OCCCCCCCC)c5c4[C@@]2(CCN3CC2CC2)[C@H]1O5 [Compound 17, (4aS,7aS,12bS)-3-(cyclopropylmethyl)-4a-hydroxy-7-methylene-2,3,4,4a,5,6,7,7a-octahydro-1H-4,12-methanobenzofuro[3,2-e]isoquinolin-9-yl octyl carbonate], the “% remaining at time point in minutes, 0 min” value [2] was 100%, the “% remaining at time point in minutes, 15 min” value (“% remaining … 15 min” below) [2] was 0% and the “% remaining at time point in minutes, 120 min” value (shortened to “% remaining … 120 min”) [2] was 0%. The “% remaining at time point in minutes, 480 min” value (“% remaining … 480 min” for short) [2] was 0% and the “% remaining at time point in minutes, 1440 min” value (“% remaining … 1440 min” below) [2] was 0%.

With C=C1CC[C@@]2(O)C3Cc4ccc(OC(=O)OCCCCCCCCCC)c5c4[C@@]2(CCN3CC2CC2)[C@H]1O5 [Compound 18, (4aS,7aS,12bS)-3-(cyclopropylmethyl)-4a-hydroxy-7-methylene-2,3,4,4a,5,6,7,7a-octahydro-1H-4,12-methanobenzofuro[3,2-e]isoquinolin-9-yl decyl carbonate] the “% remaining at time point in minutes, 0 min” value [2] was 100%, the “% remaining … 15 min” value [2] was 0.6% and the “% remaining … 120 min” value [2] was 0.3%. For the same molecule, the “% remaining … 480 min” value [2] was 0.1% and the “% remaining … 1440 min” value [2] was 0%.

In the case of CCCCCCCCOC(=O)Oc1ccc2c3c1O[C@H]1C(=O)CC[C@@]4(O)C(C2)N(CC2CC2)CC[C@]314 [Compound 23, (4aS,7aR,12bS)-3-(cyclopropylmethyl)-4a-hydroxy-7-oxo-2,3,4,4a,5,6,7,7a-octahydro-1H-4,12-methanobenzofuro[3,2-e]isoquinolin-9-yl octyl carbonate], the “% remaining at time point in minutes, 0 min” value [2] is reported as 100%, the “% remaining … 15 min” value [2] is reported as 0% and the “% remaining … 120 min” value [2] is reported as 0%. For the same molecule, the “% remaining … 480 min” value [2] was 0% and the “% remaining … 1440 min” value [2] was 0%.

In the case of C=C1CC[C@@]2(O)C3Cc4ccc(OCOC(=O)OCCCCCCCCCCCCCC)c5c4[C@@]2(CCN3CC2CC2)[C@H]1O5 [Compound 25, (((4aS,7aS,12bS)-3-(cyclopropylmethyl)-4a-hydroxy-7-methylene-2,3,4,4a,5,6,7,7a-octahydro-1H-4,12-methanobenzofuro[3,2-e]isoquinolin-9-yl)oxy)methyl tetradecyl carbonate], the “% remaining at time point in minutes, 0 min” value [2] is reported as 100%.

In the case of C=C1CC[C@@]2(O)C3Cc4ccc(OC(=O)OCCCCCCCCCCCCC)c5c4[C@@]2(CCN3CC2CC2)[C@H]1O5 [Compound 30, (4aS,7aS,12bS)-3-(cyclopropylmethyl)-4a-hydroxy-7-methylene-2,3,4,4a,5,6,7,7a-octahydro-1H-4,12-methanobenzofuro[3,2-e]isoquinolin-9-yl tridecyl carbonate], the “% remaining at time point in minutes, 0 min” value [2] is reported as 100%.

In the case of C=C1CC[C@@]2(O)C3Cc4ccc(OC(=O)CCCCCCC/C=C\CCCCCCCC)c5c4[C@@]2(CCN3CC2CC2)[C@H]1O5 [Compound 36, (4aS,7aS,12bS)-3-(cyclopropylmethyl)-4a-hydroxy-7-methylene-2,3,4,4a,5,6,7,7a-octahydro-1H-4,12-methanobenzofuro[3,2-e]isoquinolin-9-yl oleate], the “% remaining at time point in minutes, 0 min” value [2] is reported as 100%.

For C=C1CC[C@@]2(O)C3Cc4ccc(OC(=O)NC(C)(C)C)c5c4[C@@]2(CCN3CC2CC2)[C@H]1O5 [Compound 40, (4aS,7aS,12bS)-3-(cyclopropylmethyl)-4a-hydroxy-7-methylene-2,3,4,4a,5,6,7,7a-octahydro-1H-4,12-methanobenzofuro[3,2-e]isoquinolin-9-yl tert-butylcarbamate], the “Dry method and appearance” value ([1]; Acetone) was “Evaporation/white powder”, the “XRPD results (Dried)” value ([1]; Acetone) was “Amorphous” and the “Dry method and appearance” value ([1]; EtOAc) was “Evaporation/white powder”. The “XRPD results (Dried)” value ([1]; EtOAc) was “Pattern A”, the “Dry method and appearance” value ([1]; Heptane) was “Centrifugation/white powder” and the “XRPD results (Dried)” value ([1]; Heptane) was “Pattern A”. For the same molecule, the “Dry method and appearance” value ([1]; Isopropanol) was “Evaporation/oil”, the “XRPD results (Dried)” value ([1]; Isopropanol) was “Amorphous” and the “Dry method and appearance” value ([1]; MTBE) was “Evaporation/white powder”. For the same molecule, the “XRPD results (Dried)” value ([1]; MTBE) was “Amorphous”.

With C=C1CC[C@@]2(O)C3Cc4ccc(OCOC(=O)CCCCCCCCCCCCC)c5c4[C@@]2(CCN3CC2CC2)[C@H]1O5 [Compound 45, (((4aS,7aS,12bS)-3-(cyclopropylmethyl)-4a-hydroxy-7-methylene-2,3,4,4a,5,6,7,7a-octahydro-1H-4,12-methanobenzofuro[3,2-e]isoquinolin-9-yl)oxy)methyl tetradecanoate] the “Clinical observations (cell spans L-vehicle and R-TA)” value [3] was “Liquid feces about 20 mL”.

In the case of CCCCCCCCCCCCCCCCCCCC(=O)Oc1ccc2c3c1O[C@H]1C(=O)CC[C@@]4(O)C(C2)N(CC2CC2)CC[C@]314 [Compound 50, (4aS,7aR,12bS)-3-(cyclopropylmethyl)-4a-hydroxy-7-oxo-2,3,4,4a,5,6,7,7a-octahydro-1H-4,12-methanobenzofuro[3,2-e]isoquinolin-9-yl icosanoate], the “% remaining at time point in minutes, 0 min” value [2] is reported as 100%.

With CCCCCCCCCCCCCCCCCCCCCC(=O)Oc1ccc2c3c1O[C@H]1C(=O)CC[C@@]4(O)C(C2)N(CC2CC2)CC[C@]314 [Compound 51, (4aS,7aR,12bS)-3-(cyclopropylmethyl)-4a-hydroxy-7-oxo-2,3,4,4a,5,6,7,7a-octahydro-1H-4,12-methanobenzofuro[3,2-e]isoquinolin-9-yl docosanoate] the “% remaining at time point in minutes, 0 min” value [2] was 100%.

With CCCCCCCCCCCCCCCCCC(=O)Oc1ccc2c3c1O[C@H]1C(=O)CC[C@@]4(O)C(C2)N(CC2CC2)CC[C@]314 [Compound 54, (4aS,7aR,12bS)-3-(cyclopropylmethyl)-4a-hydroxy-7-oxo-2,3,4,4a,5,6,7,7a-octahydro-1H-4,12-methanobenzofuro[3,2-e]isoquinolin-9-yl stearate] the “% remaining at time point in minutes, 0 min” value [2] was 100%.

With CCCCCCCCCCCCCC(=O)Oc1ccc2c3c1O[C@H]1C(=O)CC[C@@]4(O)C(C2)N(CC2CC2)CC[C@]314 [Compound 57, (4aS,7aR,12bS)-3-(cyclopropylmethyl)-4a-hydroxy-7-oxo-2,3,4,4a,5,6,7,7a-octahydro-1H-4,12-methanobenzofuro[3,2-e]isoquinolin-9-yl tetradecanoate] the “% remaining at time point in minutes, 0 min” value [2] was 100%, the “% remaining … 120 min” value [2] was 3.2% and the “% remaining … 480 min” value [2] was 1.2%. The “% remaining … 1440 min” value [2] was 0%.

In the case of CCCCCCCCCCCCCCC(=O)Oc1ccc2c3c1O[C@H]1C(=O)CC[C@@]4(O)C(C2)N(CC2CC2)CC[C@]314 [Compound 58, (4aS,7aR,12bS)-3-(cyclopropylmethyl)-4a-hydroxy-7-oxo-2,3,4,4a,5,6,7,7a-octahydro-1H-4,12-methanobenzofuro[3,2-e]isoquinolin-9-yl pentadecanoate], the “% remaining at time point in minutes, 0 min” value [2] is reported as 100%, the “% remaining … 15 min” value [2] is reported as 37% and the “% remaining … 120 min” value [2] is reported as 20%. The “% remaining … 480 min” value [2] was 2.9% and the “% remaining … 1440 min” value [2] was 1.8%.
